PubChem BioAssay (NCI)
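Cultured in 96-well plates, cells were exposed to test compound for 48 hours across five concentrations. Definition used: TGI = concentration required for complete inhibition of growth.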

Columns and labels:
Assay in all cases: NCI-60 cell line screen, 48 h
SK-MEL-28 melanoma = test system: SK-MEL-28 melanoma
SN12C renal = test system: SN12C renal
HCT-116 colon = test system: HCT-116 colon
HS 578T breast = test system: HS 578T breast
SW-620 colon = test system: SW-620 colon
U251 CNS = test system: U251 CNS
SNB-75 CNS = test system: SNB-75 CNS
MOLT-4 leukemia = test system: MOLT-4 leukemia
HOP-62 NSCLC = test system: HOP-62 NSCLC
K-562 leukemia = test system: K-562 leukemia

Compound	TGI (SK-MEL-28 melanoma) [µM]	TGI (SN12C renal) [µM]	TGI (HCT-116 colon) [µM]	TGI (HS 578T breast) [µM]	TGI (SW-620 colon) [µM]	TGI (U251 CNS) [µM]	TGI (SNB-75 CNS) [µM]	TGI (MOLT-4 leukemia) [µM]	TGI (HOP-62 NSCLC) [µM]	TGI (K-562 leukemia) [µM]
Cc1ccc(S[C@@](C=O)(NC(=O)OCc2ccccc2)C(F)(F)F)cc1	67.1	91.7	36.7	> 100	66.9	40.7	80	52	88.3	> 100
C=CCON(C(=O)OC(C)(C)C)C(C)(C)C	> 100		> 100	> 100	> 100	> 100	> 100	> 100	> 100	> 100
CC(C)(C)OC(=O)N(CCCCNC(=O)C(F)(F)F)CCCNC(=O)C(F)(F)F	> 100	> 100	> 100	> 100	> 100	> 100	> 100	> 100	> 100	> 100
C[C@@H](CC(=O)OCc1ccccc1)OC1OC(COC(=O)C(C)(C)C)C(OC(=O)C(C)(C)C)C(OC(=O)C(C)(C)C)C1OC(=O)C(C)(C)C (stereo partly drawn)	> 100	> 100	> 100	> 100	> 100	> 100	> 100	> 100	> 100	> 100
CC1=NN(c2nc(N)nc(C(C)Cl)n2)C(C)(C)C1 (stereo not drawn)	> 100		> 100	> 100	> 100	> 100	> 100	> 100	> 100	> 100
CC(N)(CC(O)(C(F)(F)Cl)C(F)(F)Cl)C(=O)O (stereo not drawn)	> 10	> 10	> 10	> 10	> 10	> 10	> 10	> 10	> 10	> 10
Cc1c(C)c2c(c(N)c1C#N)C(=O)N(Cc1ccc(S(N)(=O)=O)cc1)C2=O	> 100	> 100	> 92.5	> 100	> 100	> 80.6	> 53.3	> 100	19.3	> 100
N#Cc1c(NC(=O)C(F)(F)F)sc2c3c(=O)c4ccccc4c(=O)c=3oc3ccccc3c12	51.5	55.3	29.1	14.6	67.1	41.3	39.4	34.3	> 61.9	75.3
COc1ccccc1C1c2cc3c(cc2OC2(OC)COC(=O)C12)OCO3 (stereo not drawn)	44.2	> 100	> 80.9	34.8	> 100	> 100	43.1	> 46.2	> 91.2	> 45.6
CCN(/C=C1/C(=O)C(c2ccccc2)N(c2ccccc2)C1=O)CC (stereo not drawn)	> 10	> 10	> 10	> 10	> 10	> 10	> 10	> 10	> 10	> 10
COc1ccc2nc3c(c(N)c2c1)C1CCC3C1(C)C (stereo not drawn)	> 100	> 100	> 100	> 100	> 100	> 100	> 100	> 100	47.9	> 100
CCN(CC)CCNc1ccc([N+](=O)[O-])c2nc3ccc(OC)cc3c(NCCN(CC)CC)c12	> 8.37	3.69	2.13	3.91	2.51	2.59	> 5.11	> 3.13	3.75	1.38
Cn1c2ccccc2c(=O)c2c(O)cc3c(c21)C1OCC(C)(O)C1O3 (stereo not drawn)	> 100	> 100	> 100	37.5	> 100	62.5	56	> 100	> 100	> 100
COC(=O)[C@H](Cc1ccccc1)NC(=O)c1ccc(CNC(=O)/C=C/c2csc(-c3ccccc3)n2)cc1	10.9	46.2	> 51.7	58.1	> 100	> 72.1	42	6.68	52.5	> 31.9
[B]C(=O)NC(CC(C)C)C(=O)NCC(=O)NC1c2ccsc2C(=O)C1O (stereo not drawn) (tested in a mixture with another compound)	> 100	> 100	> 100	> 100	> 100	> 100	> 100	> 100	> 100	> 31.6
CCOC(=O)c1c2c(n(-c3ccc(C)cc3)c1C)-c1ccccc1C(=O)C2(C(=O)OCC)C(=O)OCC	> 85.5	> 100	> 72.9	86.5	> 100	> 100	> 91.4	> 4.64	> 100	> 59.4
COC(=O)c1c(C)cccc1/C=C1\Cc2ccc(C)c(C)c2C1=O	> 100	> 100	> 100	> 100	> 100	> 100	> 100	> 100	> 100	> 100
COC(=O)[C@@H]1[C@@H]2NC(=S)N[C@@]1(C)Oc1ccccc12	> 100	> 100	> 100	> 100	> 100	> 100	> 100	> 100	> 100	> 100
CN(NC1=NCCO1)c1ccc2ccccc2c1	> 100	> 100	> 100	> 100	> 100	> 100	74.7	> 100	> 100	66.1
O=[N+]([O-])c1ccc(/C=N/Nc2nc3ccccc3[nH]2)o1	23.8	32.6	36.7	> 100	28.3	92.8	36.4	27.3	35.4	32.1
O=c1[nH]c(N/N=C\C(O)C(O)C(O)C(O)CO)nc2ccccc12 (stereo not drawn)	> 100	> 100	> 100	> 100	> 100	> 100	> 100	> 100	> 100	> 100
